Assays:
Assay type in all cases: in vivo
[1] = test system: Stellaria media, Lolium multiflorum, Amaranthus retroflexus, Sinapis alba, Avena sativa and Settaria viridis; assay: Pre-emergence effect on weeds (greenhouse pot test); settings: application rate of 1 kg or less of active substance per hectare; visually scored after 3 to 4 weeks by comparison with untreated controls
Description: Seeds or rhizome pieces of mono and dicotyledonous weed plants are placed in sandy loam soil in plastic pots and covered with soil. The compounds according to the invention which are formulated in the form of wettable powders or emulsion concentrates are then applied to the soil cover in the form of aqueous suspensions or emulsions at an application rate of 600 to 800 l of water/ha (converted), in various dosages.

[2] = test system: Cyperus monti, Echinochloa crus-galli and Sagitaria pygmaea; assay: Action on harmful plants in rice (paddy rice conditions); settings: poured into the dammed water, visual scoring about three weeks after application; further: test concentration or dose not given here
Description: Transplanted and sown rice and also typical rice weeds (gramineous and broad-leaved) are cultivated in closed plastic pots in a greenhouse to the three-leaf stage (Echinochloa crus-galli 1.5-leaf) under paddy rice conditions (height of water: 2-3 cm). This is followed by treatment with the compounds according to the invention. For this purpose, the formulated active compounds are suspended, dissolved or emulsified in water and applied by pouring them into the dammed water around the test plants in different dosages.

[3] = test system: Sinapis alba, Echinochloa crus-galli, Lolium multiforum, Stellaria media, Cyperus iria, Amaranthus retroflexus, Settaria viridis and Avena sativa; assay: Post-emergence effect on weeds (greenhouse pot test); settings: application rate of 1 kg or less of active substance per hectare; treated at the three-leaf stage; scored visually after about 3 to 4 weeks vs untreated controls
Method: Seeds or rhizome pieces of mono- and dicotyledonous weeds are placed in sandy loam soil in plastic pots, covered with soil and grown in a greenhouse under good growth conditions. Three weeks after sowing, the test plants are treated at the three-leaf stage. The compounds according to the invention, formulated as wettable powders or emulsion concentrates, are sprayed, at various dosages, onto the green parts of the plants at an application rate of 600 to 800 l of water/ha (converted). After the test plants had remained in the greenhouse for about 3 to 4 weeks under optimum growth conditions, the effect of the preparations is scored visually by comparison with untreated controls. The agents according to the invention also have good herbicidal activity post-emergence against a broad spectrum of economically important weed grasses and broad-leaved weeds.

CC(C)c1nc(N)nc(N[C@@H](CCc2ccccc2)C2CCC2)n1 [Example 1-14]
very good herbicidal activity: herbicidal activity pre-emergence against harmful plants [1] | herbicidal activity against harmful plants which are typical for rice crops [2] | herbicidal activity post-emergence against harmful plants [3]

Cc1nc(N)nc(NC(CCCc2ccccc2)C2CC2)n1 (stereo not drawn) [Example 4-8]
very good herbicidal activity: herbicidal activity pre-emergence against harmful plants [1] | herbicidal activity against harmful plants which are typical for rice crops [2] | herbicidal activity post-emergence against harmful plants [3]

CC(C)c1nc(N)nc(NC(CCc2ccccc2)CC2CC2(F)F)n1 (mixture of isomers) [Example 2-158]
very good herbicidal activity: herbicidal activity pre-emergence against harmful plants [1] | herbicidal activity against harmful plants which are typical for rice crops [2] | herbicidal activity post-emergence against harmful plants [3]

Cc1cccc(CCCC(Nc2nc(N)nc(C(C)C)n2)C2CCC2)c1 (stereo not drawn) [Example 3-71]
very good herbicidal activity: herbicidal activity pre-emergence against harmful plants [1] | herbicidal activity against harmful plants which are typical for rice crops [2] | herbicidal activity post-emergence against harmful plants [3]

Cc1cccc(CCCC(Nc2nc(N)nc(C(C)C)n2)C2CCC2)c1 (stereo not drawn) [Example 4-71]
very good herbicidal activity: herbicidal activity pre-emergence against harmful plants [1] | herbicidal activity against harmful plants which are typical for rice crops [2] | herbicidal activity post-emergence against harmful plants [3]

COc1cccc(CCCC(Nc2nc(N)nc(C(C)(C)F)n2)C2CCC2)c1 (stereo not drawn) [Example 3-76]
very good herbicidal activity: herbicidal activity pre-emergence against harmful plants [1] | herbicidal activity against harmful plants which are typical for rice crops [2] | herbicidal activity post-emergence against harmful plants [3]

COc1cccc(CCCC(Nc2nc(N)nc(C(C)C)n2)C2CCC2)c1 (stereo not drawn) [Example 3-75]
very good herbicidal activity: herbicidal activity pre-emergence against harmful plants [1] | herbicidal activity against harmful plants which are typical for rice crops [2] | herbicidal activity post-emergence against harmful plants [3]

Cc1nc(N)nc(N[C@@H](CCCc2ccccc2)C2CC2)n1 [Example 3-8]
very good herbicidal activity: herbicidal activity pre-emergence against harmful plants [1] | herbicidal activity against harmful plants which are typical for rice crops [2] | herbicidal activity post-emergence against harmful plants [3]

CC(C)(F)c1nc(N)nc(NC(CCCc2ccccc2)C2CCC2)n1 (stereo not drawn) [Example 4-64]
very good herbicidal activity: herbicidal activity pre-emergence against harmful plants [1] | herbicidal activity against harmful plants which are typical for rice crops [2] | herbicidal activity post-emergence against harmful plants [3]

CC(C)c1nc(N)nc(N[C@@H](CCc2ccccc2)CC2CC2)n1 [Example 1-144]
very good herbicidal activity: herbicidal activity pre-emergence against harmful plants [1] | herbicidal activity against harmful plants which are typical for rice crops [2] | herbicidal activity post-emergence against harmful plants [3]

CC(C)(F)c1nc(N)nc(NC(Cc2ccccc2)CC2CC2)n1 (stereo not drawn) [Example 5-2]
very good herbicidal activity: herbicidal activity pre-emergence against harmful plants [1] | herbicidal activity against harmful plants which are typical for rice crops [2] | herbicidal activity post-emergence against harmful plants [3]

CC(C)(F)c1nc(N)nc(N[C@@H](CCCc2ccccc2)C2CC2)n1 [Example 3-12]
very good herbicidal activity: herbicidal activity pre-emergence against harmful plants [1] | herbicidal activity against harmful plants which are typical for rice crops [2] | herbicidal activity post-emergence against harmful plants [3]

CC(C)c1nc(N)nc(NC(CCCc2cccc(Cl)c2)C2CCC2)n1 (stereo not drawn) [Example 4-67]
very good herbicidal activity: herbicidal activity pre-emergence against harmful plants [1] | herbicidal activity against harmful plants which are typical for rice crops [2] | herbicidal activity post-emergence against harmful plants [3]

CC(C)c1nc(N)nc(NC(CCc2ccccc2)CC2CC2(F)F)n1 (mixture of isomers) [Example 1-158]
very good herbicidal activity: herbicidal activity pre-emergence against harmful plants [1] | herbicidal activity against harmful plants which are typical for rice crops [2] | herbicidal activity post-emergence against harmful plants [3]

CC(F)c1nc(N)nc(NC(CCCc2ccccc2)C2CC2)n1 (mixture of isomers) [Example 3-3]
very good herbicidal activity: herbicidal activity pre-emergence against harmful plants [1] | herbicidal activity against harmful plants which are typical for rice crops [2] | herbicidal activity post-emergence against harmful plants [3]

CC(C)(F)c1nc(N)nc(NC(CCc2ccccc2)CC2CC2(F)F)n1 (mixture of isomers) [Example 2-157]
very good herbicidal activity: herbicidal activity pre-emergence against harmful plants [1] | herbicidal activity against harmful plants which are typical for rice crops [2] | herbicidal activity post-emergence against harmful plants [3]

CC(C)(F)c1nc(N)nc(N[C@@H](CCc2ccccc2)CC2CC2)n1 [Example 1-145]
very good herbicidal activity: herbicidal activity pre-emergence against harmful plants [1] | herbicidal activity against harmful plants which are typical for rice crops [2] | herbicidal activity post-emergence against harmful plants [3]

CC(C)c1nc(N)nc(N[C@@H](CCc2cccc(Cl)c2)C2CCC2)n1 [Example 1-23]
very good herbicidal activity: herbicidal activity pre-emergence against harmful plants [1] | herbicidal activity against harmful plants which are typical for rice crops [2] | herbicidal activity post-emergence against harmful plants [3]

CC(C)(F)c1nc(N)nc(NC(CCCCc2ccccc2)C2CC2)n1 (stereo not drawn) [Example 5-44]
very good herbicidal activity: herbicidal activity pre-emergence against harmful plants [1] | herbicidal activity against harmful plants which are typical for rice crops [2] | herbicidal activity post-emergence against harmful plants [3]

CC(C)(F)c1nc(N)nc(N[C@@H](CCCc2cccc(Cl)c2)C2CC2)n1 [Example 3-18]
very good herbicidal activity: herbicidal activity pre-emergence against harmful plants [1] | herbicidal activity against harmful plants which are typical for rice crops [2] | herbicidal activity post-emergence against harmful plants [3]

Cc1cccc(CC[C@@H](Nc2nc(N)nc(C(C)(C)F)n2)C2CCC2)c1 [Example 2-28]
very good herbicidal activity: herbicidal activity pre-emergence against harmful plants [1] | herbicidal activity against harmful plants which are typical for rice crops [2] | herbicidal activity post-emergence against harmful plants [3]

CC(C)(F)c1nc(N)nc(NC(CCCc2cccc(Cl)c2)C2CC2)n1 (stereo not drawn) [Example 4-18]
very good herbicidal activity: herbicidal activity pre-emergence against harmful plants [1] | herbicidal activity against harmful plants which are typical for rice crops [2] | herbicidal activity post-emergence against harmful plants [3]

CC(C)(F)c1nc(N)nc(NC(CCCc2ccccc2)C2CCC2)n1 (stereo not drawn) [Example 3-64]
very good herbicidal activity: herbicidal activity pre-emergence against harmful plants [1] | herbicidal activity against harmful plants which are typical for rice crops [2] | herbicidal activity post-emergence against harmful plants [3]

Cc1nc(N)nc(N[C@@H](CCc2ccccc2)C2CCC2)n1 [Example 1-16]
very good herbicidal activity: herbicidal activity pre-emergence against harmful plants [1] | herbicidal activity against harmful plants which are typical for rice crops [2] | herbicidal activity post-emergence against harmful plants [3]

CC(C)Cc1nc(N)nc(N[C@H](Cc2ccccc2)CC2CC2)n1 [Example 6-1]
very good herbicidal activity: herbicidal activity pre-emergence against harmful plants [1] | herbicidal activity against harmful plants which are typical for rice crops [2] | herbicidal activity post-emergence against harmful plants [3]

CC(C)(F)c1nc(N)nc(N[C@H](CCc2ccccc2)CC2CC2)n1 [Example 2-145]
very good herbicidal activity: herbicidal activity pre-emergence against harmful plants [1] | herbicidal activity against harmful plants which are typical for rice crops [2] | herbicidal activity post-emergence against harmful plants [3]

CC(C)(F)c1nc(N)nc(NC(CCc2ccccc2)CC2CC2(F)F)n1 (mixture of isomers) [Example 1-157]
very good herbicidal activity: herbicidal activity pre-emergence against harmful plants [1] | herbicidal activity against harmful plants which are typical for rice crops [2] | herbicidal activity post-emergence against harmful plants [3]

CC(C)(F)c1nc(N)nc(N[C@H](CCCc2ccccc2)C2CC2)n1 [Example 4-12, 2-Amino-4-(1-fluoro-1-methylethyl)-6-[(1 R)4-phenyl-1-cyclopropylbutylamino]-1,3,5-triazine]
very good herbicidal activity: herbicidal activity pre-emergence against harmful plants [1] | herbicidal activity against harmful plants which are typical for rice crops [2] | herbicidal activity post-emergence against harmful plants [3]
